The target of one assay is T1, amylosucrase (ams) (Faecalibacterium duncaniae, UniProt C7H8X5).
T1 construct: gene FAEPRAA2165_02769; full-length ORF amplified from genomic DNA, pET28a (BamHI/XhoI sites in primers, tag kept if any), E. coli BL21(DE3), soluble lysate; EC 2.4.1.4, GH13; primers encode N-term MAAKQE, C-term LVKNK
T1 sequence (C7H8X5 1-609): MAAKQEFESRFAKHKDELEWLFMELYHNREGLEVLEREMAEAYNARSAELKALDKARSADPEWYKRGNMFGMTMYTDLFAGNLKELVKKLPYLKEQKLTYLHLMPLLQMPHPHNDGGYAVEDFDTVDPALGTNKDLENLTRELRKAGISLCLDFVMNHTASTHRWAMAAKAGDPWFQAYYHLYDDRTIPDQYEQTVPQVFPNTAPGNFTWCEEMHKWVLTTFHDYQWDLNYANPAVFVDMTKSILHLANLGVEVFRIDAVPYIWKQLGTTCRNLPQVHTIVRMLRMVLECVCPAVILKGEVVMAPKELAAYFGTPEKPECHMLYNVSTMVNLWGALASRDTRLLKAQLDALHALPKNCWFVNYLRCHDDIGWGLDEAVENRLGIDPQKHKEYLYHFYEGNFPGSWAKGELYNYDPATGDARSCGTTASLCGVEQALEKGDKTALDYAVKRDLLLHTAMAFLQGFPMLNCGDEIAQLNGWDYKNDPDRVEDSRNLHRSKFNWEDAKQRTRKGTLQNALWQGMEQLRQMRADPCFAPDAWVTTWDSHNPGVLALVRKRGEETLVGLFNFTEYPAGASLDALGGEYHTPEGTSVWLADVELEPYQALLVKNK
Put plainly: MALDI-TOF-MS of products, lysate of overexpressing E. coli. It counts as biochemical. The note with it: 10 mg/ml sucrose, 50 mM sodium phosphate, 37°C, 10 min; 36 ng soluble lysate protein.

Another assay has as its target T2, β-fructosidase (bfrA) (Faecalibacterium duncaniae, UniProt C7H8W7).
T2 construct: gene FAEPRAA2165_02761; full-length ORF amplified from genomic DNA, pET28a (BamHI/XhoI sites in primers, tag kept if any), E. coli BL21(DE3), soluble lysate; EC 3.2.1.26, GH32; primers encode N-term MNDLTL, C-term FELNL
T2 sequence (C7H8W7 1-491): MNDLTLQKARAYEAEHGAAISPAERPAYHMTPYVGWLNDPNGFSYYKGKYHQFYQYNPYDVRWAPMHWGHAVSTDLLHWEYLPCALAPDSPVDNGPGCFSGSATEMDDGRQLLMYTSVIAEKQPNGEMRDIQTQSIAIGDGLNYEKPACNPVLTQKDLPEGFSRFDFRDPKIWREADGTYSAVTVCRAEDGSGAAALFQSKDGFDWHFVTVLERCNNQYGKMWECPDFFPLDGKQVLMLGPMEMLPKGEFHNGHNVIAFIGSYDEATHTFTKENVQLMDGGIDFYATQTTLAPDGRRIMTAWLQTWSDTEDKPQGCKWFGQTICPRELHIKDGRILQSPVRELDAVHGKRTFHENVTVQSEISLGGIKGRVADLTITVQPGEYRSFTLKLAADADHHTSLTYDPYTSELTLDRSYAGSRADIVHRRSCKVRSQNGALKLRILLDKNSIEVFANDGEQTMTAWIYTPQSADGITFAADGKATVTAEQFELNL
The assay is described as above. The note with it: 10 mg/ml sucrose, 50 mM sodium phosphate, 37°C, 10 min; 36 ng soluble lysate protein. Format: biochemical.

Structures are written as SMILES.

For `OC[C@H]1O[C@@](CO)(O[C@H]2O[C@H](CO)[C@@H](O)[C@H](O)[C@H]2O)[C@@H](O)[C@@H]1O` [sucrose], the “MALDI-TOF-MS of products, lysate of overexpressing E. coli” value was “sucrose was degraded by the pET28a-ams and pET28a-bfrA recombinant strains” on amylosucrase (ams); “sucrose was degraded by the pET28a-ams and pET28a-bfrA recombinant strains” at β-fructosidase (bfrA).

Values taken from paper PMC8894670, “An Integrative Multiomics Approach to Characterize Prebiotic Inulin Effects on Faecalibacterium prausnitzii” (Frontiers in Bioengineering and Biotechnology, 2022).
